Molecules are shown by their SMILES. “And” between values parts separate entries of the source, which are not always exact repeats. Equal entries are not always repeated.

Results on one compound are retold here after patent US9289490B2, “Combinations and uses thereof” (MORPHOSYS AG, priority 2010, dated 2016).

Assay [1] relates to NCI-H929 human multiple myeloma cells. Kind of assay: NCI-H929 bone lysis SCID mouse MM model, MOR202 and LEN (MicroCT). Type of assay: in vivo, SCID mice. The method, then:
63 SCID mice were inoculated on Day (−7) orthotopically into the right tibia with 2.5×10^6 NCI-H929 MM cells (in 5 μL) in order to induce bone lysis. Lenalidomide (Groups A and D) and Vehicle Control (Group C) treatments started on Day (−1). MOR202 treatments (Groups B and D) started on Day 0. Treatment continued for 6 weeks.
MicroCT Scan was used to assess bone lysis and included […] analysis comprising Total Bone Volume (TBV), Trabecular Bone Volume (Tb.BV), Trabecular Pattern Factor (Tb.Pf) and Structure Model Index (SMI). Table 10 defines each of these parameters.

In a further assay the test system is NCI-H929 cells. Put plainly: ADCC with human PBMCs, flow cytometry (CalceinAM/PI).
Setting [2] is: LEN 50 mg/kg p.o. once daily, MOR202 3 mg/kg i.p. 3 times weekly, 6 weeks, lower = less bone lysis.
[3] abbreviates: group mean of 10 mice, LEN 50 mg/kg p.o., MOR202 3 mg/kg i.p., 6 weeks.

With `Nc1cccc2c1CN(C1CCC(=O)NC1=O)C2=O` (stereo not drawn) [LEN, lenalidomide], in assay [1] (setting [2]), the “Structure Model Index (SMI), individual mouse” value was 2.679 and 2.667 and 2.335 and 2.560 and 2.086 and 2.619 and 2.562 and 2.592 and 2.547 and 3.125; the “Trabecular Pattern Factor (Tb · Pf), individual mouse” value is 24.329 mm^−1 and 23.561 mm^−1 and 22.893 mm^−1 and 28.280 mm^−1 and 22.213 mm^−1 and 30.739 mm^−1 and 24.016 mm^−1 and 29.454 mm^−1 and 24.205 mm^−1 and 38.360 mm^−1. In assay [1] (setting [3]), the “Structure Model Index (SMI), Mean” value is recorded as 2.577 and the “Trabecular Pattern Factor (Tb · Pf), Mean” value was found to be 26.805 mm^−1. In assay [1] (non-inoculated tibia = 0%, vehicle = 100% bone lysis, MOR202 alone 12 mg/kg, LEN alone 50 mg/kg, combination 3 mg/kg MOR202 and 50 mg/kg LEN), the “Reduction of bone lysis compared to vehicle control” value is listed as 20%. In addition, the “Enhancement of MOR202 activity by LEN (in words)” value in the assay with NCI-H929 cells (NCI-H929 cells, Fractional Product Concept and Chou et al., 6 out of 6 experiments each) is reported as “synergistically enhanced MOR202 activity”. Also, the “% dead cells (raw data, Table 7a), Exp. 2 and 3” value with NCI-H929 cells (PBMCs and NCI-H929 cells treated with LEN before MOR202, LEN 5 μM, MOR202 0.07 μg/ml, MOR03207 15 μg/ml) is 39.92 % dead cells and 41.92 % dead cells. For the same compound, the “% dead cells (raw data, Table 7a), Exp. 1” value in the assay on NCI-H929 cells (PBMCs and NCI-H929 cells treated with LEN before MOR202, LEN 5 μM, MOR202 0.2 μg/ml (*), MOR03207 15 μg/ml) was 38.65 % dead cells. In addition, in the assay with NCI-H929 cells (PBMCs and NCI-H929 cells treated with LEN, LEN 5 μM, MOR202 0.2 or 0.07 μg/ml, average of 3 experiments), the “Normalized specific killing, AVERAGE (Table 7b)” value was 0.63. For the same compound, in the assay on NCI-H929 cells (only effector cells treated with LEN before MOR202, LEN 5 μM, MOR202 0.07 μg/ml, MOR03207 15 μg/ml), the “% dead cells (raw data, Table 8a), Exp. 2 and 3” value is 26.27 % dead cells and 25.72 % dead cells. Also, in the assay with NCI-H929 cells (only effector cells treated with LEN before MOR202, LEN 5 μM, MOR202 0.2 μg/ml (*), MOR03207 15 μg/ml), the “% dead cells (raw data, Table 8a), Exp. 1” value is reported as 17.50 % dead cells. The “Normalized specific killing, AVERAGE (Table 8b)” value with NCI-H929 cells (only effector cells treated with LEN, LEN 5 μM, MOR202 0.2 or 0.07 μg/ml, average of 3 experiments) is listed as 0.02.
